# From patent US7994119B2, “Compounds for control of appetite” (University Of Cincinnati, priority 2004, dated 2011)
# Columns and labels:
# [1] = tested on: 129/J male mice; experiment: feeding patterns of fasted mice after intraperitoneal injection (food intake); format: in vivo; conditions: mice fasted 24 hours; for control of food intake (PYY analogs): numbers only in FIGS. 3-5
# Description: (§1) To study the feeding patterns of animals treated with the extended tripeptide BG-116, eight week old 129/J male mice are individually housed under 12-hour light/dark cycles with free access to water and standard chow. After acclimatizing for two weeks, mice are fasted 24 hours before the experiment. Saline (0.1 ml) or peptide (2 mg/mice) in saline (0.1 ml) is injected intraperitoneally, and the food intake during the next 4, 6, and 24 hours is monitored and quantified.
# as §1, with “the O-glycosylated tripeptide,” for “the extended tripeptide BG-116,”, “next 4” for “next 4, 6,”, “and 6” for “and 24”
# as §1, with “with BT-48 or N-α-Ac[Nle^24,28, Trp^30, Nva^31, ψ^35/36]PYY(22-36)-NH2 wherein ψ is —CH2-NH— (SEQ. ID. NO. 8),” for “with the extended tripeptide BG-116,”, “peptide (100 μg/mice)” for “peptide (2 mg/mice)”, “next 4” for “next 4, 6,”, “and 6” for “and 24”
# as §1, with “BT-56 or N-α-Ac-[Trp^27, ψ^35/36]PYY(25-36)-NH2 wherein ψ is —CH2-NH— (SEQ. ID. NO. 7),” for “extended tripeptide BG-116,”, “(100 μg/mice)” for “(2 mg/mice)”, “4” for “4, 6, and 24”
# as §1, with “BWX-115 or N-α-Ac-[Trp^30]PYY(25-36)-NH2 wherein ψ is —CH2-NH— (SEQ. ID. NO. 6),” for “the extended tripeptide BG-116,”, “(20 μg/mice)” for “(2 mg/mice)”, “4” for “4, 6,”
# [2] = molecular target: Y4 (Homo sapiens, UniProt P50391); conditions: cited from earlier work
# [3] = tested on: normal and fasted mice and rats, normal and obese humans; conditions: peripheral administration; cited from earlier work
# [4] = molecular target: T1, Y5 (Homo sapiens, UniProt Q15761); conditions: cited from earlier work
# T1 sequence (Q15761 1-445): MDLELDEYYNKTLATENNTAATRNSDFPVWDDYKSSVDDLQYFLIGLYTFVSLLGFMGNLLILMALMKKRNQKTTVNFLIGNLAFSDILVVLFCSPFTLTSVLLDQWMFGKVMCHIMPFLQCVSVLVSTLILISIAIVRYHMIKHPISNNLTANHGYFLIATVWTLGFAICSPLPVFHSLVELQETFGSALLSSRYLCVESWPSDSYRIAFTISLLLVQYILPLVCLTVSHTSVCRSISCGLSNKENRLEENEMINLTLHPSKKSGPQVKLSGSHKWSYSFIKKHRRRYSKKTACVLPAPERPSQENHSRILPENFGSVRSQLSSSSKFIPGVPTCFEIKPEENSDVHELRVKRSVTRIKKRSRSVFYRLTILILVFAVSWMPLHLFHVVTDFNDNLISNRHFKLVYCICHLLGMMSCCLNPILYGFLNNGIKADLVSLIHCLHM
# Sequence of Y4 (P50391 whole entry): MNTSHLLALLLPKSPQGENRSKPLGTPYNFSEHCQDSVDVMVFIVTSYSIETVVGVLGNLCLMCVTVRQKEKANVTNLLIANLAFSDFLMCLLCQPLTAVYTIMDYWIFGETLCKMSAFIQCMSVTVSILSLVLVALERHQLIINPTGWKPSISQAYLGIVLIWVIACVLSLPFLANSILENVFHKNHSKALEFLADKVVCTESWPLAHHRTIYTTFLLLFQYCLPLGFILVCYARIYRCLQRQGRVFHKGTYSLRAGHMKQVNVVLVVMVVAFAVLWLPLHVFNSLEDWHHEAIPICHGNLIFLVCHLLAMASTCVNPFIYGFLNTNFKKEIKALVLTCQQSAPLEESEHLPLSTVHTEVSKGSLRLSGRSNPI
substance,measurement,setting,value
N-α-Ac-Trp-Arg-Tyr-[β-D-Glc]-NH2 [BG-7],inhibition of feeding (O-glycosylated tripeptide),[1]; numbers only in FIG. 2,can inhibit feeding in subjects
"N-α-Ac-[Trp^27, ψ^35/36]PYY(25-36)-NH2 (Ac-RHWLNLVTRQRY-NH2; also: reduced CH2-NH bond between residues 35/36) [BT-56]",control of food intake (PYY analogs),[1],could be used to control food intake in animals and humans
N-α-Ac-[Trp^30]PYY(25-36)-NH2 (Ac-RHYLNWVTRQRY-NH2) [BWX-115],control of food intake (PYY analogs),[1],could be used to control food intake in animals and humans
"N-α-Ac[Nle^24,28, Trp^30, Nva^31, ψ^35/36]PYY(22-36)-NH2 (ASXRHYXNWXTRQRY; N-acetyl, C-amide, reduced CH2-NH bond 35/36; Artficial peptide) [BT-48]",control of food intake (PYY analogs),[1],could be used to control food intake in animals and humans
PYY(3-36): a NPY Y2-preferring ligand,activation of Y4 receptors,[2],potently activate
same,food intake,[3],attenuate food intake
same,activation of Y5 receptors,[4],potently activate
